Measured values as given in patent US11752131B2, “Methods and pharmaceutical compositions for the treatment of obesity” (INSERM (Institut National de la Sante et de la Recherche …, priority 2016, dated 2023).

Assays:
[1] = tested on: HFD-fed mice; assay: Insulin tolerance test (ITT) in HFD-fed mice; format: in vivo; settings: after 9 wks of HFD (FIG. 2A) and 20 wks of FAT diet (FIG. 2B), insulin 0.75 U/kg i.p., adjusted on percentage of fat mass gained
Description: (§1) C57BL/6 Ido-1−/− mice were from the Jackson Laboratory. Seven week-old Bl6 and Idoko male mice were subjected to HFD containing 60% fat during 20 weeks.
Insulin tolerance tests (ITT) was performed in mice food deprived 5 h prior intraperitoneal injection of insulin (0.75 U/kg). Blood was sampled from the tail vein at 0, 5, 15, 30, 60 and 120 min in order to assay glucose concentration (glucometer, France).
We next examined the effect of Ido deficiency or inhibition on glucose homeostasis in HFD-fed mice. To this end, we performed insulin tolerance tests (ITT) on Bl6, Idoko mice and Ido inhibitor (L-1 methyl tryptophan, L-1MT)-treated mice after 9 wks or 20 wks of HFD.

[2] = tested on: HFD-fed mice; assay: Oral glucose tolerance test (OGTT) with HOMA-IR index in HFD-fed mice; format: in vivo; settings: after 9 or 20 wks of HFD, normalized to fat mass (FIG. 3), versus Bl6 mice
Description: as §1
The oral glucose tolerance test was performed in mice food deprived for overnight prior to an oral administration of 3 g/kg glucose. Blood was sampled from the tail vein at 0, 5, 15, 30, 60 and 120 min in order to assay glucose concentration (glucometer, France). Plasma insulin concentration was measured using ELISA kit (Crystal Chem Inc., Downers Grove, Ill., USA). HOMA-IR in mice was calculated using the equation (fasting glucose concentration×fasting insulin concentration)/405).
Moreover, the insulin resistance index (HOMA-IR) was lower in Ido KO mice or L1MT-treated mice after 9 or 20 wks of HFD (FIG. 3).

Compound: Cn1cc(C[C@H](N)C(=O)O)c2ccccc21 [L-1MT, L-1 methyl tryptophan]
- insulin sensitivity in insulin tolerance test (ITT) versus Bl6 mice [1]: more insulin sensitive
- insulin resistance index (HOMA-IR) [2]: lower
